This experiment has as its system iNOS protein levels in RAW264.7 macrophages. As to the kind of experiment: Western blot analysis of iNOS expression in LPS-stimulated macrophages. The class given is cell-based, murine. The note with it: for iNOS expression level: normalized against LPS condition. The procedure:
To investigate the underlying mechanism of action of the most promising brominated chalcones (1 and 2), their effects on iNOS protein levels were assessed in LPS-stimulated macrophages at different time points (4, 6, and 24 h). The non-treated (NT) condition, consisting of macrophages stimulated with LPS but receiving no chalcone treatment, was used as the reference for maximal iNOS induction under inflammatory conditions and served as a positive control. The selected concentrations (7.5 μM and 15 μM) were selected based on chalcones 1 and 2 cytocompatibility (Figure 3) and efficacy in reducing NO production (Figure 4). Since NO production is a direct consequence of iNOS enzymatic activity, where the enzyme catalyzes the conversion of L-arginine to NO following inflammatory stimulation such as LPS, this provides a functional readout of iNOS expression and activity.
Here, we focused on validating iNOS expression at the protein level by western blot (Figure 6). While gene-level expression was not assessed, it is well established that LPS stimulation induces both iNOS transcription and translation in RAW 264.7 macrophages. Moreover, changes observed at the protein level are often closely associated with upstream transcriptional or translational modulation. Therefore, quantifying iNOS protein levels provides a biologically relevant measure of the chalcones’ inhibitory effects on this key inflammatory mediator.
The expression of the iNOS enzyme was analyzed by western blot. RAW264.7 macrophages were seeded at a density of 1 × 10^6 cells/well in a 6-well plate and incubated for 24 h at 37 °C in a humidified atmosphere containing 5% CO2. After incubation, cells were treated with 7.5 µM or 15 µM of the most promising chalcones (1 and 2) for 30 min, followed by the addition of LPS to have a final concentration of 100 ng/mL. Cells were then incubated for 4, 6, or 24 h. At each time point, cells were washed with PBS and lysed in RIPA buffer. The lysates were collected in Eppendorf tubes and kept on ice, with intermittent vortexing to ensure thorough lysis. Samples were centrifuged at 18,000× g for 16 min at 4 °C, and the supernatant was collected. Total protein concentration was determined using the Pierce™ BCA Protein Assay Kit (Thermo Scientific, 23225, Waltham, MA, USA), following the manufacturer’s instructions. Equal amounts of protein (25 µg) were loaded onto Bolt™ 8% Bis-Tris Mini Protein Gels (Invitrogen™, NW00087BOX, Waltham, MA, USA) and separated via electrophoresis. Proteins were then transferred onto nitrocellulose membranes (Invitrogen™, IB24002) using the iBlot® 2 dry transfer system (Invitrogen™, Waltham, MA, USA). After transfer, membranes were sectioned to separate the iNOS bands from those of the housekeeping protein GAPDH. Membranes were blocked for 1 h at room temperature in TBS-T containing 5% BSA and subsequently incubated overnight at 4 °C with primary antibodies against iNOS (Cell Signaling Technology, 16713120S, Danvers, MA, USA) or GAPDH (Abcam, ab181602, Cambridge, UK), diluted in TBS-T with 1% BSA. On the following day, membranes were washed three times with TBS-T and incubated for 1 h at room temperature with an HRP-conjugated secondary antibody (Cell Signaling Technology, 7074S) diluted in TBS-T with 1% BSA. After three additional washes, signal detection was performed using Clarity™ Western ECL Substrate (Bio-Rad, 1705061, Hercules, CA, USA), and chemiluminescent signals were acquired using the Odyssey FC imaging system (LI-COR, Lincoln, NE, USA). Densitometric analysis of iNOS bands was performed using Image Studio™ Software (version 5.2, LI-COR, Lincoln, NE, USA), with values normalized to the corresponding GAPDH bands.
Figure 6 iNOS expression level after treatment of 4, 6, and 24 h with chalcones 1 and 2 in macrophage cell line. Results are expressed as volume arbitrary unit (A). […]
Background: In western blotting, separated proteins are transferred to a membrane and probed.

For the compound `COc1cc(Br)c(/C=C/C(=O)c2cc(OC)c(OC)cc2Br)cc1OC` [Chalcone 1], the iNOS expression level amounted to 84.7% (7.5 µM, 4 h); 14.3% (7.5 µM, 24 h); 28.3% (15 µM, 4 h); 13.5% (15 µM, 6 h); 16.7% (15 µM, 24 h). Further, the “maximum reduction of iNOS expression” value (regardless of concentration (7.5 µM at 24 h, 15 µM at 6 h)) is “approximately 85%”.

The values are drawn from article PMC12299847, “Macroalgae-Inspired Brominated Chalcones as Cosmetic Ingredients with the Potential to Target Skin Inflammaging” (Marine Drugs, 2025).
